Paper PMC9576799, “Discovery of small molecule inhibitors that effectively disrupt IQGAP1-Cdc42 interaction in breast cancer cells” (Scientific Reports, 2022)
pEC50: −log10 of the molar value. Values after ≈ are worked out from the molar mass of the structure shown.

Columns and labels:
[1] = system: MDA-MB-231 cells; test: IncuCyte proliferation assay, MDA-MB-231; format: cell-based, human; conditions: 72 h; for effect on proliferation: up to 50 µM
Method: MDA-MB-231 and MCF7 cells were grown to confluence, detached using trypsin–EDTA cell dissociation buffer (Gibco 12604013) and counted. Cells were plated into 384-well, clear-bottom, black, tissue culture treated plates (Corning 3683) using an automatic dispenser (Thermo Multidrop Combi SMART) at densities of 2000 cells/10 µL/well for MDA-MB-231 cells and 4000 cells/10 µL/well for MCF7 cells in DMEM supplemented with 5% FBS. After 4 h incubation at 37 °C with 5% CO2, the growth medium was replaced with 10 µL medium containing compounds at 16-point 1:2 serial dilutions with the final highest concentration of 50 µM for each compound. All samples containing compounds were plated in triplicate. Cells in the first column of the plate were treated with 0.5% DMSO as control. The plates were placed into an Incucyte SX5 Live-cell imaging system (Sartorius) and phase images were taken at 6-h intervals for 72 h with 10X objective lens. The growth medium containing compounds or DMSO was replenished after 24 h. The images were analyzed, and the growth curves generated by the Incucyte software 2020A using the basic analyzer mode.

[2] = molecular target: T1, His-tagged GST (Schistosoma japonicum, UniProt P08515); test: HTRF counter-screen with His-GST; conditions: 100 nM His-GST
T1 construct: purchased Millipore #12-523
T1 sequence (P08515 whole entry): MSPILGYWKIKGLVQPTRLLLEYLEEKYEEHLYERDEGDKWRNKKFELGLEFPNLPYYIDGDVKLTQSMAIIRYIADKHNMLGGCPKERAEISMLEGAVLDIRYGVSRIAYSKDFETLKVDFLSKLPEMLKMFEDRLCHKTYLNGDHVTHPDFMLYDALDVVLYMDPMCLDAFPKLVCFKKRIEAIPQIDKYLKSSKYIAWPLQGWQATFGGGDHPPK
Method: Two different HTRF counter-screens were used to identify false positive hits. The two interacting proteins GST-IQGAP1-C and His-Cdc42-Q61L were replaced with His-tagged GST or Cdc42-Q61L containing GST at the N-terminus and His at the C-terminus (GST-Cdc42-Q61L-His).
The second counter-screen was performed with 100 nM His-tagged GST following the protocol described above.
Supplementary Table S2: Counter-screening HTRF protocol.
Step Parameter Value Description
1a Protein 4 µL 100 nM His-GST (final concentration), diluted in
1b Controls 4 µL Column 2: GST-IQGAP1-C protein only [1.5nM] final
Column 3: pre-mixed proteins (regular assay
2 Compounds 23 nL Selected compounds were pin-transferred from DMSO
HTRF α-His-XL (5 ng/µL, 3X working concentration) +
3 antibodies 2 µL α-GST-K (0.7 ng/µL 3X working concentration),
pre-mix mixed in binding buffer
4 Time 3 Incubation (ambient temperature)
5 Reagent 1 µL 2.8 M KF (7x)
6 Detector HTRF Envision plate reader (excitation: 340 nm, emission: […]

[3] = pION µSOL kinetic aqueous solubility; format: physicochemical; conditions: pION µSOL assay, pH 7.4; for solubility kinetic: aqueous medium
[4] = molecular target: T2, endogenous IQGAP1/Cdc42 interaction (Homo sapiens, UniProt P46940+P60953); test: Immunoprecipitation of endogenous IQGAP1 and co-precipitated Cdc42 in HEK293 cell lysates; format: binding; conditions: DMSO = 100% binding
T2 construct: endogenous in cells; host or cells: HEK293 cell lysate
T2 sequence (P46940 2-1657 limits assumed): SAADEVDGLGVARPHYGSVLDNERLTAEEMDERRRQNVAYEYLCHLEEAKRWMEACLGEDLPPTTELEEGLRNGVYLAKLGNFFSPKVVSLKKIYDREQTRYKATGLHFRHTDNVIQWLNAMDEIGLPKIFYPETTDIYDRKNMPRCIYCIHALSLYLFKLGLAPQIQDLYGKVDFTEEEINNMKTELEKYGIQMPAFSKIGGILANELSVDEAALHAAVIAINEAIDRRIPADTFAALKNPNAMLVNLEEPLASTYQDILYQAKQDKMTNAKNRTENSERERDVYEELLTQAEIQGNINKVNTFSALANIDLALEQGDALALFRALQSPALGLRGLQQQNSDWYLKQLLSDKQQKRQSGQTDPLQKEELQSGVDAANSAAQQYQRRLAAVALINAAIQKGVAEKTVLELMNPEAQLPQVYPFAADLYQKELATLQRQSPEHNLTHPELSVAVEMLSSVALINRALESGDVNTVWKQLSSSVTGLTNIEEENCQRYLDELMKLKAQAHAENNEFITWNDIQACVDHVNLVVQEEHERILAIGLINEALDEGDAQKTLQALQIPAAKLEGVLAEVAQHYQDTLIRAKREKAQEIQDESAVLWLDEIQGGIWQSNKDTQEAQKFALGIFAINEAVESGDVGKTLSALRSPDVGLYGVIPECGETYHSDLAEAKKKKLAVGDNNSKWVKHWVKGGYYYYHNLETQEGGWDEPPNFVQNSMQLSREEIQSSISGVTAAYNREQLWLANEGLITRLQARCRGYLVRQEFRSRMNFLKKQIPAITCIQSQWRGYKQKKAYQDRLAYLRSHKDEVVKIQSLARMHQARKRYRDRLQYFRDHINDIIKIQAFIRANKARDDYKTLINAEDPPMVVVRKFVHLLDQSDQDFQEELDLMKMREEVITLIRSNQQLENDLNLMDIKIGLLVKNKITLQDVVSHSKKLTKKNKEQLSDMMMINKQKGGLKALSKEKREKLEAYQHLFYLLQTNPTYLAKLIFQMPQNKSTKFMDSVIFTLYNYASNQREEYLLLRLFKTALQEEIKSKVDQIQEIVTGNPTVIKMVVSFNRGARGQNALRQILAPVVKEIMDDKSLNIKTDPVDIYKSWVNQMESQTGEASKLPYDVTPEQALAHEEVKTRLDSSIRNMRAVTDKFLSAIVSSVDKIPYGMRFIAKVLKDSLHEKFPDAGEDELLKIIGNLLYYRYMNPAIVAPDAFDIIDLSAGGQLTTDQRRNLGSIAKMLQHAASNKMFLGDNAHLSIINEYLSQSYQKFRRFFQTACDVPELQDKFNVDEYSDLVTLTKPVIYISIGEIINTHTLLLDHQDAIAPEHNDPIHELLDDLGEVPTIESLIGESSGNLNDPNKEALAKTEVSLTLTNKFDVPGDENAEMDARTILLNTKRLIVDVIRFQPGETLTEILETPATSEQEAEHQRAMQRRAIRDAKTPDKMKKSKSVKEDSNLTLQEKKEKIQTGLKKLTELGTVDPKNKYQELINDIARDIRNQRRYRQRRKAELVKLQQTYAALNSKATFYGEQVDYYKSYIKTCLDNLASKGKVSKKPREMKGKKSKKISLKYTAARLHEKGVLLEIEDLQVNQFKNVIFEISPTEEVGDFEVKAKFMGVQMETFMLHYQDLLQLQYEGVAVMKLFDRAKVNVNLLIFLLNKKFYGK
T2 sequence (P60953 1-188 limits assumed): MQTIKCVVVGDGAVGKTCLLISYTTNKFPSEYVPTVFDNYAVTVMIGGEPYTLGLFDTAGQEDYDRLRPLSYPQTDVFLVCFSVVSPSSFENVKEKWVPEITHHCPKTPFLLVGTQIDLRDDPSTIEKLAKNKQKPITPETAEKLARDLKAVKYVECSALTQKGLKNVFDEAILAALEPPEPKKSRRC
Method: Each compound was added to lysates from HEK293 cells at a final concentration of 50 µM and endogenous IQGAP1 was immunoprecipitated. DMSO alone was used as the negative control (100% binding).
HEK293 cells were plated in 10-cm dishes to reach 80% confluence. The following day, the cells were washed with ice-cold phosphate-buffered saline (PBS) and lysed with 500 µl of Buffer A (50 mM Tris–HCl, pH 7.4, 150 mM NaCl, and 1% Triton X-100) supplemented with complete protease and phosphatase inhibitors (Roche, Mannheim, Germany). Lysates were subjected to two rounds of sonication for 10 s each, and insoluble material was precipitated by centrifugation at 13,000 xg for 10 min at 4 °C. Supernatants were precleared with protein A-Sepharose beads for 1 h. DMSO (vehicle) or different concentrations of the compounds (0.2, 0.6, 1, 5, 16 or 50 µM) were added to equal amounts of protein lysates for 30 min. Protein A-Sepharose beads and anti-IQGAP1 polyclonal antibodies were then added for 2 h at 4 °C. Anti-rabbit IgG antibodies were used as the immunoprecipitation control. Samples were washed five times with Buffer A, resolved by SDS-PAGE and transferred to polyvinylidene fluoride (PVDF) membranes (Millipore Corp). Membranes were probed with anti-IQGAP1 and anti-Cdc42 antibodies. After secondary antibody detection, Western blots were imaged using a LI-COR Odyssey infrared imaging system (LI-COR, USA). Western blot quantification and analysis was conducted using Image Studio™ Lite (LI-COR Biosciences).

[5] = system: active (GTP-bound) Cdc42 in MDA-MB-231 cells; test: Assay of active Cdc42 (GST-WASP-GBD pulldown); format: cell-based, human; conditions: 50 µM for 2 h, 100 ng/mL EGF 10 min
Method: The GST-WASP-GBD (GTPase-binding-domain) has been described previously. Briefly, GST-WASP-GBD was generated by polymerase chain reaction, digested, and ligated into a pGEX-KG vector[52]. Following expression of the GST fusion protein in E. coli, purification was performed by glutathione-Sepharose affinity chromatography. MDA-MB-231 cells were grown in DMEM with 10% FBS to 60% confluence. After 2 h, 100 ng/mL EGF or vehicle was added for 10 min. After washing with 1xPBS, cells were lysed in lysis buffer (20 mM Hepes, pH 7.4, 150 mM NaCl, 1% NP-40, 20 mM NaF, and 20uM GTP, containing halt protease & phosphatase inhibitor cocktail (Thermo Scientific #1,861,281). Lysates were precleared with glutathione-Sepharose for 1 h at 4 °C and equal amounts of protein was incubated with either GST (control) or GST-WASP-GBD for 2 h at 4 °C. Complexes were collected with glutathione-Sepharose and washed 5× with lysis buffer. Bound proteins were resolved by SDS-PAGE and transferred to a polyvinylidene difluoride membrane. The membrane was cut immediately below the 37 kDa molecular weight marker. The top portion of the membrane was discarded and the bottom portion was probed with anti-Cdc42 antibody (BD Transduction Laboratories #610929). Aliquots of whole cell lysate were processed in parallel. […] The intensities of the Cdc42 and tubulin bands were quantified using Image Studio (LI-COR Biosciences).

pEC50 ([1]; confluency)	Solubility (kinetic aqueous) [3]	reduction of interaction between endogenous IQGAP1 and Cdc42 (mean) ([4]; 16 µM (Fig. 3b))	solubility kinetic [3]	reduction of interaction between endogenous IQGAP1 and Cdc42 (mean) ([4]; 0.2 µM (Fig. 3b))	SMILES	effect on proliferation [1]	activity in His-GST counter-screen [2]	effect on EGF-induced active (GTP-) Cdc42 [5]
5.52	< 1 µg/mL	–	–	–	CCN(CC)CCn1c2ccccc2c2nc3ccc([N+](=O)[O-])cc3cc21 [MLS000332963]	dose-dependent inhibitory effect	inactive	–
–	–	60%	37.1 µg/mL (≈ 88 µM)	–	CCN1CCN(c2ncc3c(n2)CCN(Cc2cc(Br)cs2)C3)CC1 [NCGC00131308]	dose-dependent inhibitory effect	–	abrogated the increase in GTP-Cdc42 induced by EGF
–	–	–	–	–	Cc1cccc(NC(=O)c2c(NC(=O)C(F)(F)F)sc3c2CCCCC3)c1 [NCGC00098561]	–	not active	–
–	–	–	< 1 µg/mL	47%	CCc1ccccc1Nc1ncnc2c1cnn2-c1ccc(Cl)cc1 [NCGC00138812]	dose-dependent inhibitory effect	–	did not appreciably reduce activation of Cdc42 by EGF
